Test results from patent US20030023386A1, “Metabolome profiling methods using chromatographic and spectroscopic data in pattern recognition analysis” (priority 2001, published 2003).

How the values were obtained:
[1] = tested on: Corn plants (Zea mays), Pioneer 3514; experiment: Herbicide mode-of-action recognition by 1H NMR of plant isolates and neural network analysis (Example 8); type: in vivo; conditions: for output unit activation: small NN trained with first batch, tested on second batch, four herbicide groups and control; for herbicide treatment group assigned by the neural network: chemically different AHAS inhibitors, output unit activation vs. treatment group
Method: Zea mays seeds (Pioneer 3514) were set to germinate in paper towel rolls in tap water for 5 days in the growing chamber. The environment was adjusted to “summer conditions” (day/night ratio of 14/10 hours, regulated temperature of 27° C. and humidity of 70%). After germination the seedlings were visually inspected. Seedlings that were homogeneous in size and appearance were selected, set in 50-ml amber bottles in 25-ml Hoagland nutrient solution (12 ml micronutrients stock solution, 12 ml FeEDTA (5 g/100 ml), 2.4 ml KH2PO4 (1 M), 24 ml MgSO4 (1 M), 60 ml KNO3 (1 M), 60 ml Ca(NO3)2 (1 M), and 60 ml MES buffer (200 mM), diluted to 12 litre with deionized water) and grown for 5 more days, after which they reached the three-leaf stage. At this point, 20 μl of a stock solution of technical grade herbicide in acetone (see Table I) was added to the hydroponic solution or applied to the second leaf (with similar results). The control group of “Untreated Plants” received 20 μl acetone only and all of the plants were returned to the growing chamber.
Twenty-four hours post-treatment, the plants were harvested by excising between the coleoptile and the first leaf collar. At this time, the plants show only slight growth stunting in response to the treatments. The first leaf sheet was separated and the meristematic tissue (approximately 250 to 300 mg per plant) was collected, flash frozen in liquid nitrogen in a cryogenic 3 ml tube, and stored in a liquid nitrogen freezer until further use. The plant meristems were each pulverized in a mortar (under liquid N2), suspended in 2.4 ml of HCl solution (0.25N) and centrifuged at 14000 g, 4° C., for 60 minutes. The NMR samples were prepared from 0.8 ml of the supernatants and 0.2 ml D2O (with TSP 0.05 w/v) and kept on ice.
(§1) The 500 MHz ^1H NMR spectra of plant extracts were recorded using a Bruker AMX 500 NMR spectrometer equipped with a TXI 5 mm probe. The probe temperature was carefully regulated using the Bruker/Haake variable temperature accessory, and all spectra were recorded under identical experimental conditions, as shown in Table 10:
The time-domain NMR spectra (“FIDs”) were exponential multiplied (LB=0.5 Hz), Fourier transformed, and then phase- and baseline-corrected manually. The frequency domain were exported by the NMR software as J-CAMP formatted files, which were stored in a UNIX subdirectory for “preprocessing” via NN_Tools, as described below.
The frequency domain NMR spectra were “preprocessed” by NN_Tools as follows: J-CAMP formatted spectra files were converted into vectors (8 k real data points), and the files were renamed (renumbered) in order to be processed by further programs in an automatic fashion. A window of points was cut from the central part (around O1) of each vector to delete the residual water signal. Then points were cut from the low field and high field parts of the vector, because no resonance signals were detectable in these regions. Groups of typically five (5) adjacent points were averaged in histogram fashion (“bining”) and the resulting “preprocessed” spectrum comprised 1080 data points. Finally, vertical scaling was applied to meet the signal amplitude requirements of the neural network software.
The artificial neural network calculations described in the report were performed using a standard software package, the Stuttgart Neural Network Simulator (SNNS), on a Silicon Graphics Inc. (SGI) UNIX workstation. A convenient interface called NN_Tools, was developed in-house to perform NMR spectral preprocessing and to format the raw data for input to SNNS. NN_Tools comprises a set of Perl scripts which form patterns out of NMR spectra that can be input automatically to SNNS for the training, validation, and testing steps of neural network simulation. This free software package (“freeware”) was developed at the Institute for Parallel and Distributed High Performance Systems at the University of Stuttgart, Germany. […]

[2] = tested on: corn (Zea mays) seedlings (Pioneer 3514); experiment: Neural network recognition of treatment from 1H NMR spectra of corn seedling extracts (training/validation cycle); type: in vivo; conditions: for Network Recognition: validation set sel4c.pat, NN trained with 15 spectra (sel4.pat), meristematic tissue harvested 24 hours after treatment
Method: For example, corn (Zea mays) seeds (Pioneer 3514) were set to germinate in paper towel rolls in tap water covered with plastic foil (to minimize evaporation) for 5 days in the growing chamber. Conditions were adjusted to “summer days” (day/night 14/10 hours, controlled temperature 27° C. and humidity 70%). After germination the seedlings were visually inspected. Seedlings that were homogeneous in size and appearance were selected and set to grow in hydroponic Hoagland culture solution.
Each seedling was set in a 50 mL dark bottle in 25 mL Hoagland nutrient solution. The plants were then grown for 5 more days after they had reached the three-leaf stage. At this point the hydroponic solution was changed and the seedlings were treated as follows:
Different herbicide stock solutions in acetone were added in concentrated form to the hydroponic solution or, in the case of control plants with 20 μL acetone, or
The hydroponic solution was replaced by a solution containing different concentrations of herbicides, or just hydroponic nutrient solution for control plants.
All herbicides were technical grade. The plants were returned to the growing chamber after treatment. After 24 hours, the plants were harvested by excising between the coleoptile and the first leaf collar. The first leaf sheet was separated and the meristematic tissue collected was flash frozen in liquid nitrogen in a cryogenic 3 ml tube and stored in the liquid nitrogen freezer until further use.
For example, frozen meristematic tissue was placed in a mortar and liquid nitrogen was added. The pestle was also allowed to cool in the liquid nitrogen. When the liquid nitrogen was evaporated, the plant tissue was pulverized in the mortar. Then, 2.4 mL of 0.25N aq. HCl solution were added to the mortar and the sample was further mixed with the pestle. The suspension was placed into an Eppendorf centrifuge tube and set in ice until all the samples for an experiment were processed for centrifugation. The samples were centrifuged at 14000 g, at 4° C., for 60 minutes. The supernatant was separated from the pellet and 0.8 mL taken and mixed with 0.2 mL D2O (with TSP 0.05 w/v for NMR reference) for the lock signal in the spectrometer. The samples were kept in ice until NMR measurement.
as §1, with “proton” for “500 MHz ^1H”, “regulated to better than ±0.1 K” for “regulated”, “follows:” for “shown in Table 10:”
The NMR spectra were multiplied with an exponential function (LB parameter=0.5 Hz), Fourier transformed, and manually phase- and baseline-corrected. Spectra were, in an automatic fashion, exported into JCAMP-DX format and converted into pattern vectors for pattern recognition approaches. A window of points was removed from the central part of each vector prior to analysis, to avoid the water residual signal as shown in FIG. 2. Also, data points were removed at the low field and high field portions of the spectral vector because no resonance signals were detectable in these regions.
A first set of 71 spectra, with 3 batches of 6-9 control samples, 2 batches with 15 PURSUIT® treated samples, and one batch each with 6(4) Sethoxydim, Glyphosate, and Diuron treated samples. Two plants fouled after the herbicide treatment phase, and were treated as separate category, exemplifying samples with very different properties. […]

[3] = tested on: corn (Zea mays) seedlings; experiment: Blind test: NN recognition of mode-of-action of herbicides not used in training; type: in vivo; conditions: NN trained only with untreated, PURSUIT, Diuron, Sethoxydim, Glyphosate; different herbicide concentrations
Method: As an example, we have used the NN trained and validated as shown in the above Example 3. It was trained to recognize untreated, PURSUIT®, Diuron, Sethoxydim, and Glyphosate treatment. In a blind test, we presented pattern from samples that were treated with no herbicide or different concentrations of various herbicides. In addition to the herbicides used in the training set, two other imidazolinones: ASSERT® and ARSENAL® (imazapyr and imazamethabenz) and two sulfonylureas GLEAN® and OUST® (chlorsulfuron and sulfometuron) were chosen, and the plants were treated as described above. For the blind test of the ANN analysis tool the samples only the two first to batches contributed samples to the training set. Thereby, the neuronal network had to truly recognized new batches with many samples having compound treatments applied that were unknown to the NN. In summary, we found a complete success of the methodology: The neuronal network classifies all untreated samples correctly as untreated, assigns the correct herbicide treatment for all herbicides that have been previously presented to the NN during training, even if such samples originated from batches that were not part of the NN training.
Note that the learning output target for the test spectra is zero in all cases in FIG. 4a and 4b. The total SSE in the calculation was high because of the difference between the given output value (zero) and the calculated value, but the spectra were correctly classified in all cases as belonging to the second output node, which is imazethapyr or AHAS inhibition. Similar results were obtained for the second set of experiments.

[4] = tested on: WT corn (Pioneer 3514, PURSUIT sensitive); experiment: Phenotypic response of corn lines to PURSUIT in hydroponic medium, wild type line; type: in vivo, Zea mays
Method: In these experiments, seedlings from three genetically different corn seed lines were germinated, grown in hydroponic medium, excised, extracted and measured as described before. The plants belong to “wild type” (WT, Pioneer 3514, PURSUIT® sensitive), imidazolinone-tolerant (IT, Gerst 8541 heterozygotic, PURSUIT® tolerant), and imidazolinone-resistant (IR, Pioneer 3395, homozygotic, PURSUIT® resistant) lines.
Two batches with five seedlings each from WT, IR, and IT lines, were grown at various levels of PURSUIT® concentration, as follows in Table 5:
The different lines of corn can be distinguished phenotypically at growing levels of herbicide treatment. […] For WT, herbicidal effects are already observed at the lowest (41 μM) PURSUIT® concentration. On the other hand even the IR lines are affected by concentrations of imidazolinones so high as 4 mM. The plants were harvested after only 24 hours after treatment such that phenotypic differences were restricted to the development (or lack) of the fourth leaf. It is important to harvest at an early stage to avoid that the plants become senescent. The senescence process produces accumulation of a series of metabolites that would obscure the metabolic profile response associated with one specific mode of action.

[5] = tested on: IR corn (Pioneer 3395, homozygotic, PURSUIT resistant); conditions: saturated solution of PURSUIT; cited from earlier work

Compound: CCC/C(=N\OCC)C1=C(O)CC(CC(C)SCC)CC1=O (stereo not drawn) [Sethoxydim]
- output unit activation [1]: ~1
- Network Recognition [2]: Sethoxydim

Compound: CC(C)C1(C)N=C(c2ncccc2C(=O)O)NC1=O (stereo not drawn) [ARSENAL®, imazapyr]
- herbicide treatment group assigned by the neural network [1]: imazethapyr
- NN classification of treatment / mode-of-action in blind test [3]: correctly assigned as AHAS inhibitors

Compound: CN(C)C(=O)Nc1ccc(Cl)c(Cl)c1 [Diuron]
- output unit activation [1]: ~1
- NMR spectral changes of treated samples versus controls ([2]; 1H NMR of corn seedling extracts): most changes versus controls in the resonance region of the sugar-proton
- Network Recognition [2]: Diuron

Compound: imazamethabenz [ASSERT®]
- herbicide treatment group assigned by the neural network [1]: imazethapyr
- NN classification of treatment / mode-of-action in blind test [3]: correctly assigned as AHAS inhibitors

Compound: CC(NC(=O)C(C)NC(=O)C(N)CCP(C)(=O)O)C(=O)O (stereo not drawn) [Bialaphos]
- signs of damage of treated plants ([1]; 24-hours post-application, bialaphos formulation): # presented much stronger signs of damage than all the others. Formulations usually produce an effect of faster absorption and sometimes translocation that increases the metabolic response.

Compound: Cc1cc(C)nc(NC(=O)NS(=O)(=O)c2ccccc2C(=O)O)n1 [OUST®, sulfometuron]
- herbicide treatment group assigned by the neural network [1]: imazethapyr
- NN classification of treatment / mode-of-action in blind test [3]: correctly assigned as AHAS inhibitors

Compound: O=C(O)CNCP(=O)(O)O [Glyphosate]
- output unit activation [1]: ~1
- Network Recognition [2]: Glyphosate

Compound: COc1nc(C)nc(NC(=O)NS(=O)(=O)c2ccccc2Cl)n1 [GLEAN®, chlorsulfuron]
- herbicide treatment group assigned by the neural network [1]: imazethapyr
- NN classification of treatment / mode-of-action in blind test [3]: correctly assigned as AHAS inhibitors

Compound: CCc1cnc(C2=NC(C)(C(C)C)C(=O)N2)c(C(=O)O)c1 (stereo not drawn) [PURSUIT ®, imazethapyr]
- PURSUIT concentration at which herbicidal effects are observed ([4]; WT line, lowest concentration tested, hydroponic): ≤ 41 µM
- phenotypic response observed ([4]; growing levels of herbicide treatment, within 48 hours): total arrest on the growth of the plants and their wilting
- output unit activation [1]: ~1
- Network Recognition [2]: PURSUIT ®
- phenotypic response of IR plants [5]: growth arrest
